Experimental findings from ChEMBL document CHEMBL1158619, “Synthesis and biological activity of oxadiazole and triazolothiadiazole derivatives as tyrosinase inhibitors” (Bioorg Med Chem Lett, 2010) are described below.

What is called IC50 is the concentration at which inhibition is half-maximal.

Activity calls are given as the source filed them. The calls are words filed in the database; no cut-off is given here.

In test [1] the target is T1, Tyrosinase (Agaricus bisporus) (UniProt O42713).
T1 sequence (whole entry): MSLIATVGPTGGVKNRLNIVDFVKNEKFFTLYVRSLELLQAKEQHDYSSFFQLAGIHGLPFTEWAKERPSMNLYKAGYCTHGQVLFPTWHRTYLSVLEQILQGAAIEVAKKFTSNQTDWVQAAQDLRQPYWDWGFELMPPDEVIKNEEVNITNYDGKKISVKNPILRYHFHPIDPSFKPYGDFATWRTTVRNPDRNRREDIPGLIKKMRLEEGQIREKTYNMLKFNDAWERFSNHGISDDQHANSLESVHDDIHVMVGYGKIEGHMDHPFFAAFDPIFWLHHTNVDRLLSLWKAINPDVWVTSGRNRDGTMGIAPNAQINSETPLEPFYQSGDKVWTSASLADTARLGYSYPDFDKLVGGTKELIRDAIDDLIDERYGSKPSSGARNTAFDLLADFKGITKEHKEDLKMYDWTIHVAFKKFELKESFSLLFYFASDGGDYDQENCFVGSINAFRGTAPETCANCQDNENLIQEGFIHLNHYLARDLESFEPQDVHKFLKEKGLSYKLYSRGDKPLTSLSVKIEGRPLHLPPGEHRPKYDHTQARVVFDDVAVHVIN
Nature of the test: Inhibition of mushroom tyrosinase at 50 uM preincubated for 5 mins before addition of L-DOPA measured after 10 mins.

Test [2] addresses T2, Tyrosinase (Agaricus bisporus, UniProt O42713).
T2 sequence (O42713 whole entry): T1 sequence (whole entry)
Description: Inhibition of mushroom tyrosinase preincubated for 5 mins before addition of L-DOPA measured after 10 mins

In the case of `Clc1ccccc1-c1nnc2sc(-c3nccc4ccccc34)nn12`, the inhibition entry in test [1] is “inactive”.

For the compound `c1ccc2c(Cc3nnc4sc(-c5nccc6ccccc56)nn34)cccc2c1`, the inhibition entry in test [1] was “inactive”.

As to `Clc1ccccc1-c1nnc2sc(-c3cccnc3)nn12`, the inhibition result in test [1] is “inactive”.

Turning to `S=c1oc(Cc2cccc3ccccc23)nn1CN1CCCC1`, the IC50 in test [2] was 1330 nM.

For the compound `Cc1cc(C)n(-c2ccc(-c3nn4c(-c5ccccc5Cl)nnc4s3)cc2)n1`, the inhibition result in test [1] was “inactive”.

In test [2], `CN1CCN(Cn2nc(Cc3cccc4ccccc34)oc2=S)CC1` gave an IC50 of 1490 nM. This counts as single-digit micromolar.

For `c1ccc2c(Cc3nnc(SCCN4CCCCC4)o3)cccc2c1`, in test [1], the inhibition result is “inactive”.

For the compound `c1ccc(-c2nnc3sc(-c4nccc5ccccc45)nn23)cc1`, the inhibition result in test [1] is “inactive”.

Take `Cc1cc(C)n(-c2ccc(-c3nn4c(-c5ccccc5)nnc4s3)cc2)n1`: the inhibition result in test [1] was “inactive”.

Consider `Cc1cc(C)n(-c2ccc(-c3nn4c(Cc5cccc6ccccc56)nnc4s3)cc2)n1`, for which the inhibition entry in test [1] was “inactive”.

For `Clc1ccccc1-c1nnc(SCCN2CCOCC2)o1`, in test [1], the inhibition entry is “inactive”.

In the case of `c1ccc(-c2nnc(SCCN3CCCCC3)o2)cc1`, the inhibition result in test [1] was “inactive”.

Regarding `S=c1oc(Cc2cccc3ccccc23)nn1CN1CCCCC1`, inhibition in test [2] was half-maximal at 970 nM (IC50). This counts as sub-micromolar.

Take `Clc1ccccc1-c1nnc(SCCN2CCCCC2)o1`: the inhibition result in test [1] was “inactive”.

In test [2], `S=c1oc(Cc2cccc3ccccc23)nn1CN1CCOCC1` showed an IC50 of 1340 nM.

On to `S=c1oc(Cc2cccc3ccccc23)nn1CN1CCNCC1`, for which the half-inhibitory concentration (IC50) in test [2] worked out at 870 nM. Compared with the last compound, the IC50 is about 1.5-fold lower.
